Target: F508delCFTR (Homo sapiens, UniProt P13569, DEL508-508)
Test: Cell Surface Expression-Horse Radish Peroxidase (CSE-HRP) assay
Assay type: cell-based
Parameters: expressed in transfected cells; host or cells: CFBE41o- human lung derived epithelial cell line, doxycycline-inducible
Settings: CFBE4lo-F508delCFTR-HRP cells; for EC50: 18-24 hours at 33° C., 8-point curve, highest concentration 20 μM, luminescence readout; for Emax: maximum % activity at any tested concentration, normalized to on-plate positive control (3 μM Example 1)
Summary of the method: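 Following 18-24 h compound exposure at 33° C. Expression was doxycycline-induced beforehand. % activity versus DMSO and a 3 μM corrector control gave maximum activity and EC50 from a variable-Hill sigmoidal fit.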

F508delCFTR, sequence (P13569 with tags, fused parts or gaps DEL508-508): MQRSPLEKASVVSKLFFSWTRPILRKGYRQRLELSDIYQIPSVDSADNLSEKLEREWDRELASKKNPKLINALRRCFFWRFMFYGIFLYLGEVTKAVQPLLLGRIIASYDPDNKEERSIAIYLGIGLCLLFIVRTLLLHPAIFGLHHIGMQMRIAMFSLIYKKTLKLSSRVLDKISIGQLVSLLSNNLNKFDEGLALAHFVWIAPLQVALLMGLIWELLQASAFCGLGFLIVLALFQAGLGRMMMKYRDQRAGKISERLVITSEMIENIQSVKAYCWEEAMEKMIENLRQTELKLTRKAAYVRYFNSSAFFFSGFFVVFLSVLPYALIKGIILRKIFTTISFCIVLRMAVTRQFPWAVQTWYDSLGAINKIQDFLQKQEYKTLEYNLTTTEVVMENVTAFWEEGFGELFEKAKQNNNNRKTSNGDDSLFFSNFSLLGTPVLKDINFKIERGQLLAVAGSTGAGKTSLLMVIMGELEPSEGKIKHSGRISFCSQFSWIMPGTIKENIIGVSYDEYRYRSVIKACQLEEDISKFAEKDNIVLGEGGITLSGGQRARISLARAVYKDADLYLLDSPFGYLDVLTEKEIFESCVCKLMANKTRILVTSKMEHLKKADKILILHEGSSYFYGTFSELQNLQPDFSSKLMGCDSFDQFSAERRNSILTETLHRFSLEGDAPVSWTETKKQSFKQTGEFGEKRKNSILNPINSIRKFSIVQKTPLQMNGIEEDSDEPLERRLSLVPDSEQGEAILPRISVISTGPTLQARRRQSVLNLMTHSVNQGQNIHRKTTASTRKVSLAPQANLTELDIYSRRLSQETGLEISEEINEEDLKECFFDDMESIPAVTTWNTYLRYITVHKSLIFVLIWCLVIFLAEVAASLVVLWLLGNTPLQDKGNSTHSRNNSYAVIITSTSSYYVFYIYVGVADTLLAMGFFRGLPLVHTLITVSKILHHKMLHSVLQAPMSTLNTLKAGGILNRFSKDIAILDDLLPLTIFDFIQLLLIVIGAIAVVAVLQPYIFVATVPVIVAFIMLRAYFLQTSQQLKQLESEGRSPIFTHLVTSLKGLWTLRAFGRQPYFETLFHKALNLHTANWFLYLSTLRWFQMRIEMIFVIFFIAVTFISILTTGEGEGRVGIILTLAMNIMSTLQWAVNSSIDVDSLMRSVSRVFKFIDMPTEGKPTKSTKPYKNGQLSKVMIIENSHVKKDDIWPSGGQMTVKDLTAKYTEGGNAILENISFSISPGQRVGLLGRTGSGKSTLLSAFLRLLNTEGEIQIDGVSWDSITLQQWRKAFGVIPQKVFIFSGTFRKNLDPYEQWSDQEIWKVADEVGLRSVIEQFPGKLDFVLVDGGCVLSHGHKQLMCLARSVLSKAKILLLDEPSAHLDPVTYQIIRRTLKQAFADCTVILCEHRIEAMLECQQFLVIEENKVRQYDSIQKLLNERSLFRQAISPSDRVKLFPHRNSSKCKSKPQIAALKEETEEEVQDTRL

Row | Structure (SMILES) | EC50 | Emax
1 | O=C(O)COc1ccc2c(c1)O[C@@H](c1cccc(C(=O)O)c1)C[C@H]2NC(=O)C1(c2ccc3c(c2)OC(F)(F)O3)CC1 [Example 96, 3-[(2R,4R)-7-(carboxymethoxy)-4-({[1-(2,2-difluoro-1,3-benzodioxol-5-yl)cyclopropyl]carbonyl}amino)-3,4-dihydro-2H-chromen-2-yl]benzoic acid] | ≥ 20 µM | 15%
2 | O=C(NC1CC2(CCN(C[C@@H](O)CO)CC2)Oc2cc(F)ccc21)C1(c2ccc3c(c2)OC(F)(F)O3)CC1 (stereo partly drawn) [Example 99, 1-(2,2-difluoro-1,3-benzodioxol-5-yl)-N-{1′-[(2R)-2,3-dihydroxypropyl]-7-fluoro-3,4-dihydrospiro[chromene-2,4′-piperidin]-4-yl}cyclopropanecarboxamide] | 3.89 µM | 56%
3 | CS(=O)(=O)N1CCC2(CC1)CC(NC(=O)C1(c3ccc4c(c3)OC(F)(F)O4)CC1)c1ccc(F)cc1O2 (centres unmarked) [Example 101, 1-(2,2-difluoro-1,3-benzodioxol-5-yl)-N-[7-fluoro-1′-(methylsulfonyl)-3,4-dihydrospiro[chromene-2,4′-piperidin]-4-yl]cyclopropanecarboxamide] | 6.65 µM | 60%
4 | CC(=O)N1CCC2(CC1)CC(NC(=O)C1(c3ccc4c(c3)OC(F)(F)O4)CC1)c1ccc(F)cc1O2 (centres unmarked) [Example 102, N-(1′-acetyl-7-fluoro-3,4-dihydrospiro[chromene-2,4′-piperidin]-4-yl)-1-(2,2-difluoro-1,3-benzodioxol-5-yl)cyclopropanecarboxamide] | 4.86 µM | 89%
5 | O=C(NC1CC2(CNC2)Oc2cc(F)ccc21)C1(c2ccc3c(c2)OC(F)(F)O3)CC1 (centres unmarked) [Example 103, 1-(2,2-difluoro-1,3-benzodioxol-5-yl)-N-(7′-fluoro-3′,4′-dihydrospiro[azetidine-3,2′-chromen]-4′-yl)cyclopropanecarboxamide] | 8.53 µM | 28%
6 | CS(=O)(=O)N1CC2(CC(NC(=O)C3(c4ccc5c(c4)OC(F)(F)O5)CC3)c3ccc(F)cc3O2)C1 (centres unmarked) [Example 104, 1-(2,2-difluoro-1,3-benzodioxol-5-yl)-N-[7′-fluoro-1-(methylsulfonyl)-3′,4′-dihydrospiro[azetidine-3,2′-chromen]-4′-yl]cyclopropanecarboxamide] | 6.58 µM | 49%

Now those with a lower EC50, led by results:

Row | EC50 | Emax | Structure (SMILES)
7 | 0.92 µM | 98% | COC(=O)c1cccc([C@H]2C[C@@H](NC(=O)C3(c4ccc5c(c4)OC(F)(F)O5)CC3)c3ccc(OCc4ccccc4)cc3O2)c1 [Example 95, methyl 3-[(2R,4R)-7-(benzyloxy)-4-({[1-(2,2-difluoro-1,3-benzodioxol-5-yl)cyclopropyl]carbonyl}amino)-3,4-dihydro-2H-chromen-2-yl]benzoate]
8 | 0.38 µM | 90% | COCCOc1ccc2c(c1)O[C@@H](c1cccc(C(=O)O)c1)C[C@H]2NC(=O)C1(c2ccc3c(c2)OC(F)(F)O3)CC1 [Example 97, 3-[(2R,4R)-4-({[1-(2,2-difluoro-1,3-benzodioxol-5-yl)cyclopropyl]carbonyl}amino)-7-(2-methoxyethoxy)-3,4-dihydro-2H-chromen-2-yl]benzoic acid]
9 | 0.57 µM | 102% | O=C(O)c1cccc([C@H]2C[C@@H](NC(=O)C3(c4ccc5c(c4)OC(F)(F)O5)CC3)c3ccc(OCc4ccccc4)cc3O2)c1 [Example 98, 3-[(2R,4R)-7-(benzyloxy)-4-({[1-(2,2-difluoro-1,3-benzodioxol-5-yl)cyclopropyl]carbonyl}amino)-3,4-dihydro-2H-chromen-2-yl]benzoic acid]
10 | 3.08 µM | 40% | O=C(OCc1ccccc1)N1CC2(CC(NC(=O)C3(c4ccc5c(c4)OC(F)(F)O5)CC3)c3ccc(F)cc3O2)C1 (centres unmarked) [Example 100, benzyl 4′-({[1-(2,2-difluoro-1,3-benzodioxol-5-yl)cyclopropyl]carbonyl}amino)-7′-fluoro-3′,4′-dihydro-1H-spiro[azetidine-3,2′-chromene]-1-carboxylate]

From US9642831B2, “Substituted chromanes and method of use” (AbbVie S.á.r.l., priority 2014, dated 2017)
